Drawing on ChEMBL document CHEMBL5375950, “Chemical genetic approaches for the discovery of bacterial cell wall inhibitors” (2023), this text covers MIC for one compound.

The assay relates to Escherichia coli. In words: Antibacterial activity against Escherichia coli MG1655 assessed as inhibition of bacterial growth. It counts as functional.

Values after ≈ are worked out from the molar mass of the structure shown.

In general, MIC refers to the smallest concentration in the dilution series that meets the test's criterion for growth inhibition. Regarding `COc1ccc(-c2c(-c3ccc(C)s3)[nH]c3[nH]c(=O)[nH]c(=O)c23)cc1`, the MIC was 16 µg/mL (≈ 45.3 µM).
